Laboratory results from patent US20200131669A1, “CYCLIC PEPTIDE COMPOUND HAVING HIGH MEMBRANE PERMEABILITY, AND LIBRARY CONTAINING SAME” (Chugai Seiyaku Kabushiki Kaisha, priority 2017, published 2020).
Starred links: 1 amine or outer side, 2 acyl side, 3 side chain; linkers in the order of their positions; H or OH if unused. Positions of bridges follow the written chain, without caps; N, C: chain ends. Non-standard residues stand in square brackets, D forms with d. Residues, ends and D or L forms follow the SMILES beside them. ξ: configuration not given here. *: point of attachment. Glu(NHSO2Me) = CS(=O)(=O)NC(=O)CC[C@H](N)C(=O)O; NMePhe(3-Cl) = CN[C@@H](Cc1cccc(Cl)c1)C(=O)O; NMeF = CN[C@@H](Cc1ccccc1)C(=O)O; NMeGABA = CN(CCCC(=O)[*:2])[*:1]; ξThr(3R) = C[C@@H](O)C(N)C(=O)O; NMeL = CN[C@@H](CC(C)C)C(=O)O; NMeV = CN[C@H](C(=O)O)C(C)C; NMeAbu = CC[C@H](NC)C(=O)O; NMeA = CN[C@@H](C)C(=O)O; Piperidide = C1CCN(*)CC1; Me2NCH2CH2 = CN(C)CC*; NBuGly = CCCCNCC(=O)O; Isopentyl = CC(C)CC*; NPrGly = CCCNCC(=O)O; ξS = NC(CO)C(=O)O; Sar = CNCC(=O)O; tBu = CC(C)(C)*

Experiment: Caco-2 membrane permeability, improved method as used in the following Examples (96-well, 20 to 24 h preincubation)
Assay type: in vitro ADME
Conditions: human, Caco-2, Caco-2
Description: In the following Examples, membrane permeability was measured in accordance with the improved method established as described above. Specifically, Caco-2 cells were cultured on a 96-well Transwell for three weeks, after which DMEM+FaSSIF (1% DMSO)+compound were added to the apical side and DMEM was added to the basal side, and the cells were preincubated at 5% CO2, 37° C., and 80 rpm for 20 to 24 hours. Following the preincubation, measurement of membrane permeability was initiated by removing the preincubation solution on the apical and basal sides by suction, washing the membrane, and adding FaSSIF/HBSS buffer (1% DMSO) (pH 6.0) containing the compound to the apical side and HBSS buffer (4% BSA) (pH 7.4) to the basal side. Each well was shaken at 5% CO2, 37° C., and 80 rpm, and 180 minutes after the initiation, the sample on the basal side was collected and the permeation amount was measured by LC/MS. The membrane permeability coefficient (Papp) was calculated from the permeation amount. Herein, the terms “Caco-2 (cm/sec)” in the columns in the tables and “Papp (cm/sec)” are used in the same meaning.

| SMILES | Papp A→B at 180 min [×10⁻⁶ cm/s] |
| --- | --- |
| CCCN1CC(=O)N(C)[C@@H](CC(C)C)C(=O)N[C@@H](COC(C)(C)C)C(=O)N(C)[C@@H](Cc2ccccc2)C(=O)N(C)[C@@H](C(C)C)C(=O)N[C@H](C(=O)N2CCCCC2)CC(=O)N[C@H](C(C)C)C(=O)N(C)[C@@H](Cc2ccccc2)C(=O)N[C@@H](COCCN(C)C)C(=O)N(C)[C@@H](CC(C)C)C(=O)N[C@@H]([C@@H](C)O)C1=O [pd50] ([dV][NMeF]S(Me2NCH2CH2)[NMeL]T[NPrGly][NMeL]S(tBu)[NMeF][NMeV]D-Piperidide; lactam N-11) | 0.15 |
| CCCCN1CC(=O)N(C)[C@@H](CC(C)C)C(=O)N[C@@H](COCCN(C)C)C(=O)N(C)[C@@H](Cc2ccccc2)C(=O)N(C)[C@@H](C(C)C)C(=O)N[C@H](C(=O)N2CCCCC2)CC(=O)N[C@H](CC(C)C)C(=O)N(C)[C@@H](Cc2ccccc2)C(=O)N[C@@H](CC(C)C)C(=O)N(C)[C@@H](CC(C)C)C(=O)N[C@@H]([C@@H](C)O)C1=O [pd51] ([dL][NMeF]L[NMeL]T[NBuGly][NMeL]S(Me2NCH2CH2)[NMeF][NMeV]D-Piperidide; lactam N-11) | 0.07 |
| CCCN1CC(=O)N(C)[C@@H](CC(C)C)C(=O)N[C@@H](COCCN(C)C)C(=O)N(C)[C@@H](Cc2ccccc2)C(=O)N(C)[C@@H](C(C)C)C(=O)N[C@H](C(=O)N2CCCCC2)CC(=O)N[C@H](C(C)C)C(=O)N(C)[C@@H](Cc2ccccc2)C(=O)N[C@@H](CC(C)C)C(=O)N(C)[C@@H](CC(C)C)C(=O)N[C@@H]([C@@H](C)O)C1=O [pd52] ([dV][NMeF]L[NMeL]T[NPrGly][NMeL]S(Me2NCH2CH2)[NMeF][NMeV]D-Piperidide; lactam N-11) | 0.12 |
| CCCCN1CC(=O)N(C)[C@@H](CC(C)C)C(=O)N[C@@H](COC(C)(C)C)C(=O)N(C)[C@@H](Cc2ccccc2)C(=O)N(C)[C@@H](C(C)C)C(=O)N[C@H](C(=O)N2CCCCC2)CC(=O)N[C@H](C(C)C)C(=O)N(C)[C@@H](Cc2ccccc2)C(=O)N[C@@H](COCCN(C)C)C(=O)N(C)[C@@H](CC(C)C)C(=O)N[C@@H]([C@@H](C)O)C1=O [pd53] ([dV][NMeF]S(Me2NCH2CH2)[NMeL]T[NBuGly][NMeL]S(tBu)[NMeF][NMeV]D-Piperidide; lactam N-11) | 0.14 |
| CC(C)C[C@@H]1NC(=O)[C@H](CC(C)C)N(C)C(=O)CCCN(C)C(=O)C[C@@H](C(=O)N2CCCCC2)NC(=O)[C@H](CC(C)C)N(C)C(=O)[C@H](CC(C)C)N(C)C(=O)[C@H]([C@@H](C)O)NC(=O)[C@H](CC(C)C)N(C)C(=O)[C@H](COCCN(C)C)NC(=O)[C@H](Cc2ccccc2)N(C)C(=O)[C@H](Cc2ccccc2)N(C)C1=O [pd54] ([NMeGABA][NMeL]L[NMeF][NMeF]S(Me2NCH2CH2)[NMeL]T[NMeL][NMeL]D-Piperidide; lactam N-11) | 0.073 |
| CCCCN1CC(=O)N(C)[C@@H](C(C)C)C(=O)N[C@H](C(=O)N2CCCCC2)CC(=O)N(C)[C@@H](C)C(=O)N[C@@H](COCCN(C)C)C(=O)N(C)[C@@H](CC(C)C)C(=O)N(C)[C@@H](Cc2ccccc2)C(=O)N[C@@H](CC(C)C)C(=O)N(C)[C@@H](Cc2ccccc2)C(=O)N(C)[C@@H](CC(C)C)C(=O)N[C@@H]([C@@H](C)O)C1=O [pd56] ([NMeA]S(Me2NCH2CH2)[NMeL][NMeF]L[NMeF][NMeL]T[NBuGly][NMeV]D-Piperidide; lactam N-11) | 0.12 |
| CCCN1CC(=O)N(C)[C@@H](C(C)C)C(=O)N[C@H](C(=O)N2CCCCC2)CC(=O)N(C)[C@@H](C)C(=O)N[C@@H](CC(C)C)C(=O)N(C)[C@@H](CC(C)C)C(=O)N(C)[C@@H](Cc2ccccc2)C(=O)NC(COCCN(C)C)C(=O)N(C)[C@@H](Cc2ccccc2)C(=O)N(C)[C@@H](CC(C)C)C(=O)N[C@@H]([C@@H](C)O)C1=O (stereo partly drawn) [pd57] ([NMeA]L[NMeL][NMeF][ξS](Me2NCH2CH2)[NMeF][NMeL]T[NPrGly][NMeV]D-Piperidide; lactam N-11) | 0.12 |
| CCCCN1CC(=O)N(C)[C@@H](Cc2ccccc2)C(=O)N[C@@H](COCCN(C)C)C(=O)N(C)[C@@H](CC(C)C)C(=O)N[C@@H]([C@@H](C)O)C(=O)N(C)CC(=O)N(C)[C@@H](Cc2ccccc2)C(=O)N(C)[C@@H](CC)C(=O)N[C@@H](COCCC(C)C)C(=O)N(C)[C@@H](CC(C)C)C(=O)N[C@H](C(=O)N2CCCCC2)CC1=O [pd58] ([NBuGly][NMeF]S(Me2NCH2CH2)[NMeL]T[Sar][NMeF][NMeAbu]S(Isopentyl)[NMeL]D-Piperidide; lactam N-11) | 0.021 |
| CCCCN1CC(=O)N(C)[C@@H](CC(C)C)C(=O)N[C@@H](CC(C)C)C(=O)N(C)[C@@H](Cc2ccccc2)C(=O)N(C)[C@@H](C(C)C)C(=O)N[C@H](C(=O)N2CCCCC2)CC(=O)N[C@H](CC(C)C)C(=O)N(C)[C@@H](Cc2cccc(Cl)c2)C(=O)N[C@@H](CCC(=O)NS(C)(=O)=O)C(=O)N(C)[C@@H](CC(C)C)C(=O)NC([C@@H](C)O)C1=O (stereo partly drawn) [pd59] ([dL][NMePhe(3-Cl)][Glu(NHSO2Me)][NMeL][ξThr(3R)][NBuGly][NMeL]L[NMeF][NMeV]D-Piperidide; lactam N-11) | < 0.0088 |
| CCCCN1CC(=O)N(C)[C@@H](CC(C)C)C(=O)N[C@@H](CCC(=O)NS(C)(=O)=O)C(=O)N(C)[C@@H](Cc2cccc(Cl)c2)C(=O)N(C)[C@@H](C(C)C)C(=O)N[C@H](C(=O)N2CCCCC2)CC(=O)N[C@H](CC(C)C)C(=O)N(C)[C@@H](Cc2cccc(Cl)c2)C(=O)N[C@@H](CC(C)C)C(=O)N(C)[C@@H](CC(C)C)C(=O)N[C@@H]([C@@H](C)O)C1=O [pd60] ([dL][NMePhe(3-Cl)]L[NMeL]T[NBuGly][NMeL][Glu(NHSO2Me)][NMePhe(3-Cl)][NMeV]D-Piperidide; lactam N-11) | 0.01 |
| CCCCN1CC(=O)N(C)[C@@H](CC(C)C)C(=O)N[C@@H](CCC(=O)NS(C)(=O)=O)C(=O)N(C)[C@@H](Cc2cccc(Cl)c2)C(=O)N(C)[C@@H](C(C)C)C(=O)N[C@H](C(=O)N2CCCCC2)CC(=O)N[C@H](CC(C)C)C(=O)N(C)[C@@H](Cc2cccc(Cl)c2)C(=O)N[C@@H](CC(C)C)C(=O)N(C)[C@@H](CC)C(=O)N[C@@H]([C@@H](C)O)C1=O [pd61] ([dL][NMePhe(3-Cl)]L[NMeAbu]T[NBuGly][NMeL][Glu(NHSO2Me)][NMePhe(3-Cl)][NMeV]D-Piperidide; lactam N-11) | < 0.094 |
| CCCCN1CC(=O)N(C)[C@@H](C(C)C)C(=O)N[C@H](C(=O)N2CCCCC2)CC(=O)N(C)[C@@H](CC(C)C)C(=O)N[C@@H](CCC(=O)NS(C)(=O)=O)C(=O)N(C)[C@@H](CC(C)C)C(=O)N(C)[C@@H](Cc2ccccc2)C(=O)N[C@@H](CC(C)C)C(=O)N(C)[C@@H](Cc2ccccc2)C(=O)N(C)[C@@H](CC(C)C)C(=O)N[C@@H]([C@@H](C)O)C1=O [pd62] ([NMeL][Glu(NHSO2Me)][NMeL][NMeF]L[NMeF][NMeL]T[NBuGly][NMeV]D-Piperidide; lactam N-11) | < 0.13 |
| CCCCN1CC(=O)N(C)[C@@H](C(C)C)C(=O)N[C@H](C(=O)N2CCCCC2)CC(=O)N(C)[C@@H](CC)C(=O)N[C@@H](CCC(=O)NS(C)(=O)=O)C(=O)N(C)[C@@H](CC(C)C)C(=O)N(C)[C@@H](Cc2cccc(Cl)c2)C(=O)N[C@@H](CC(C)C)C(=O)N(C)[C@@H](Cc2ccccc2)C(=O)N(C)[C@@H](CC(C)C)C(=O)N[C@@H]([C@@H](C)O)C1=O [pd63] ([NMeAbu][Glu(NHSO2Me)][NMeL][NMePhe(3-Cl)]L[NMeF][NMeL]T[NBuGly][NMeV]D-Piperidide; lactam N-11) | < 0.1 |
| CCCCN1CC(=O)N(C)[C@@H](CC(C)C)C(=O)N[C@H](C(=O)N2CCCCC2)CC(=O)N(C)[C@@H](CC(C)C)C(=O)N[C@@H](CC(C)C)C(=O)N(C)[C@@H](CC)C(=O)N(C)[C@@H](Cc2ccccc2)C(=O)N[C@@H](CCC(=O)NS(C)(=O)=O)C(=O)N(C)[C@@H](Cc2cccc(Cl)c2)C(=O)N(C)[C@@H](CC(C)C)C(=O)NC([C@@H](C)O)C1=O (stereo partly drawn) [pd64] ([NMeL]L[NMeAbu][NMeF][Glu(NHSO2Me)][NMePhe(3-Cl)][NMeL][ξThr(3R)][NBuGly][NMeL]D-Piperidide; lactam N-11) | 0.15 |
| CCCCN1CC(=O)N(C)[C@@H](Cc2ccccc2)C(=O)N[C@@H](CCC(=O)NS(C)(=O)=O)C(=O)N(C)[C@@H](CC(C)C)C(=O)N[C@@H]([C@@H](C)O)C(=O)N(CCCC)CC(=O)N(C)[C@@H](Cc2ccccc2)C(=O)N(C)[C@@H](CC(C)C)C(=O)N[C@@H](CC(C)C)C(=O)N(C)[C@@H](CC(C)C)C(=O)N[C@H](C(=O)N2CCCCC2)CC1=O [pd65] ([NBuGly][NMeF][Glu(NHSO2Me)][NMeL]T[NBuGly][NMeF][NMeL]L[NMeL]D-Piperidide; lactam N-11) | 0.06 |
| CCCCN1CC(=O)N(C)[C@@H](Cc2cccc(Cl)c2)C(=O)N[C@@H](CCC(=O)NS(C)(=O)=O)C(=O)N(C)[C@@H](CC(C)C)C(=O)N[C@@H]([C@@H](C)O)C(=O)N(CCCC)CC(=O)N(C)[C@@H](Cc2ccccc2)C(=O)N(C)[C@@H](CC(C)C)C(=O)N[C@@H](CC(C)C)C(=O)N(C)[C@@H](CC(C)C)C(=O)N[C@H](C(=O)N2CCCCC2)CC1=O [pd66] ([NBuGly][NMePhe(3-Cl)][Glu(NHSO2Me)][NMeL]T[NBuGly][NMeF][NMeL]L[NMeL]D-Piperidide; lactam N-11) | 0.09 |

Same assay, conditions: human; Papp; Table 25, cyclic peptides containing Ser(Et-2-NMe2) or Gln(Ms), not in table head; read-out: Caco-2

| SMILES | Papp A→B at 180 min [×10⁻⁶ cm/s] |
| --- | --- |
| CC(C)C[C@@H]1NC(=O)[C@H](Cc2ccccc2)N(C)C(=O)[C@H](Cc2ccccc2)N(C)C(=O)[C@H](COCCN(C)C)NC(=O)[C@H](CC(C)C)N(C)C(=O)CCCN(C)C(=O)C[C@@H](C(=O)N2CCCCC2)NC(=O)[C@H](CC(C)C)N(C)C(=O)[C@H](CC(C)C)N(C)C(=O)[C@H]([C@@H](C)O)NC(=O)[C@H](CC(C)C)N(C)C1=O [pd55] ([NMeGABA][NMeL]S(Me2NCH2CH2)[NMeF][NMeF]L[NMeL]T[NMeL][NMeL]D-Piperidide; lactam N-11) | 0.1 |
